Data published in publication PMC9370560, “5-Demethoxy-10′-ethoxyexotimarin F, a New Coumarin with MAO-B Inhibitory Potential from Murraya exotica L” (Molecules, 2022).
Read-outs that look alike come from different tables or passages of the source.

How the values were obtained:
MAO-B [1] = molecular target: T1, MAO-B (Homo sapiens, UniProt P27338); conditions: previous studies of the authors; read-out: IC50 against MAO-B; cited from earlier work
T1 sequence (P27338 1-520): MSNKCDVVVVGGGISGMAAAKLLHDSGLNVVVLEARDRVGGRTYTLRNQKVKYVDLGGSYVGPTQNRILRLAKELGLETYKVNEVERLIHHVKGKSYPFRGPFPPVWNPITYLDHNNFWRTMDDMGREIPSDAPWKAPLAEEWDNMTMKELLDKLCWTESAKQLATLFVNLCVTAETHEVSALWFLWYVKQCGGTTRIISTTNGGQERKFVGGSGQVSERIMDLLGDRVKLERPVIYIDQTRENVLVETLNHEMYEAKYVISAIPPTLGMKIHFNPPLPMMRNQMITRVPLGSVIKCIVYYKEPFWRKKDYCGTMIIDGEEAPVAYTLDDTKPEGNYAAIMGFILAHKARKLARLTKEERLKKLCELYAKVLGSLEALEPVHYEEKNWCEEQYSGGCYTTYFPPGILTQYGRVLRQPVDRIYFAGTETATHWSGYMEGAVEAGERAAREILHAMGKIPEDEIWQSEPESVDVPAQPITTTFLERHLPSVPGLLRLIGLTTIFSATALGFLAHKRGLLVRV

[2] = test system: Candida albicans (ATCC10231); assay: Antimicrobial assay (broth dilution and Oxford cup method); format: cell-based; conditions: 100 μM
Excerpt: (§1) The broth dilution method and Oxford cup method were used to detect antimicrobial activity against reference strains, including Salmonella enterica subsp. enterica (ATCC14028), Staphylococcus aureus subsp. aureus (ATCC29213), Escherichia coli (ATCC25922), Pseudomonas aeruginosa (ATCC27853), and Candida albicans (ATCC10231). Ceftazidime and penicillin G sodium and amphotericin B served as an antibacterial and antifungal positive control, respectively.

[3] = test system: Escherichia coli (ATCC25922); assay: as above; format: cell-based; conditions: 100 μM
Excerpt: as §1

[4] = test system: Pseudomonas aeruginosa (ATCC27853); assay: as above; format: cell-based; conditions: 100 μM
Excerpt: as §1

[5] = test system: LPS-induced NO production in RAW264.7 cells; assay: Anti-inflammatory assay: inhibition of LPS-induced NO production; format: cell-based
[6] = test system: T2, butyrylcholinesterase (BuChE); assay: Butyrylcholinesterase inhibitory activity (Ellman's method); format: biochemical, human; conditions: 50 μM
T2 construct: acetylcholinesterase and butyrylcholinesterase derived from human erythrocytes; purchased Sigma Chemical (St. Louis, MO, USA); host or cells: human erythrocytes (so in the source)
Procedure: (§2) S-Acetylthiocholine iodide, S-butyrylthiocholineiodide, 5,5′-dithio-bis-(2-nitrobenzoic) acid (DTNB, Ellman’s reagent), acetylcholinesterase and butyrylcholinesterase derived from human erythrocytes were purchased from Sigma Chemical (St. Louis, MO, USA). The compounds were dissolved in DMSO. The reaction mixture (totally 200 μL) containing phosphate buffer (pH 8.0), test compound (50 μM), and acetyl cholinesterase (0.02 U/mL) or butyrylcholinesterase (0.016 U/mL), was incubated for 20 min (37 °C). […] All of the reactions were performed in triplicate. The percentage inhibition was calculated as follows: % inhibition = (E − S)/E × 100 (E is the activity of the enzyme without test compound, and S is the activity of the enzyme with test compound).

[7] = test system: acetylcholinesterase (AChE); conditions: 50 μM
Procedure: as §2

MAO-A = molecular target: T3, MAO-A (Homo sapiens, UniProt P21397); assay: biochemical; conditions: mean ± S.E.M. from three experiments
T3 sequence (P21397 1-527): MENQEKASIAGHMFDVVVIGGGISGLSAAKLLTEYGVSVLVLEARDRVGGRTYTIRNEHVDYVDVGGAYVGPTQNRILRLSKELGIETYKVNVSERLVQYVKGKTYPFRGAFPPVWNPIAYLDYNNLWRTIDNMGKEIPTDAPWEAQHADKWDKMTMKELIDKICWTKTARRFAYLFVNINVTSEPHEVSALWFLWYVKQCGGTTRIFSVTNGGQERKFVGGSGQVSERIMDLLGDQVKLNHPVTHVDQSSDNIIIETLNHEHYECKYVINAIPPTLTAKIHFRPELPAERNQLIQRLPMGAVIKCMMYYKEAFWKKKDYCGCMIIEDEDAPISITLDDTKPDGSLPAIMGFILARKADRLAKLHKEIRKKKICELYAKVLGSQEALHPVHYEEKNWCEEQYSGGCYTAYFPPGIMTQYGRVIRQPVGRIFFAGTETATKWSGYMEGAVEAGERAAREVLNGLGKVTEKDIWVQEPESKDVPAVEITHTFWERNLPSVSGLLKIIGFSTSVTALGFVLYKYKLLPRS

[8] = test system: Staphylococcus aureus (ATCC29213); assay: Antimicrobial assay (broth dilution and Oxford cup method); format: cell-based, Staphylococcus aureus subsp. aureus; conditions: 100 μM
Excerpt: as §1

[9] = test system: Salmonella enterica (ATCC14028); assay: as above; format: cell-based, Salmonella enterica subsp. enterica; conditions: 100 μM
Excerpt: as §1

MAO-B [10] = molecular target: T1, MAO-B; assay: biochemical
α-glucosidase = assay: α-Glucosidase inhibition assay (4-NPGP); format: biochemical
Procedure: An enzyme inhibitor screening model was chosen using 4-nitro-phenol-α-D-glucopyranoside (4-NPGP) and slightly modified. Briefly, the test compound (50 μM), α-glucosidase solution (0.025 U/mL), phosphate buffer (pH 6.9), and (4-NPGP) (1 μM) were incubated in 96-well plates at 37 °C for 50 min. […] Quercetin was selected as the positive control. All of the reactions were repeated three times.

## COc1c(OC/C=C(\C)C[C@@H]2C=C(CCC(N)=O)C(=O)O2)ccc2ccc(=O)oc12 [anisucoumaramide]
MAO-B [1]
  IC50: 143.7 ± 0.9 nM

## C=C(C)[C@H](O)[C@@H](OCC)c1c(OC)ccc(/C=C/C(=O)O[C@H](Cc2c(OC)ccc3ccc(=O)oc23)C(C)(C)O)c1O [Compound 1, (E)-(R)-3-hydroxy-1-(7-methoxy-2-oxo-2H-chromen-8-yl)-3-methylbutan-2-yl·3-(3-((1S, 2S)-1-ethoxy-2-hydroxy-3-methylbut-3-en-1-yl)-2-hydroxy-4-methoxyphenyl)acrylate]
[2]
  inhibitory effect against Candida albicans (ATCC10231): did not lead to a significant inhibitory effect
[3]
  inhibitory effect against Escherichia coli (ATCC25922): did not lead to a significant inhibitory effect
[4]
  inhibitory effect against Pseudomonas aeruginosa (ATCC27853): did not lead to a significant inhibitory effect
[5]
  inhibition against LPS-induced NO production: 34.59%
[6]
  BuChE inhibitory activity: did not show any inhibitory activity
[7]
  AChE inhibitory activity: did not show any inhibitory activity
MAO-A
  IC50: 26300 ± 1030 nM
[8]
  inhibitory effect against Staphylococcus aureus (ATCC29213): did not lead to a significant inhibitory effect
[9]
  inhibitory effect against Salmonella enterica (ATCC14028): did not lead to a significant inhibitory effect
MAO-B [10]
  SI: MAO-B selectivity index = IC50 (MAO-A)/IC50 (MAO-B): 172
MAO-B [10]; mean ± S.E.M. from three experiments
  IC50: 153 ± 1.58 nM
α-glucosidase; 50 μM
  α-glucosidase percentage of inhibition: less than 50%

## [H]/N=C(/NC)NCCC[C@H](N)C(=O)O [L-NMMA, NG-monomethyl-L-arginine, reference compound]
[5]
  inhibition against LPS-induced NO production: 56.13%

## O=c1c(O)c(-c2ccc(O)c(O)c2)oc2cc(O)cc(O)c12 [quercetin, reference compound]
α-glucosidase; concentration not given
  α-glucosidase inhibition (positive control): 53.17%
